This passage reports ABT-263 solubility, Solubility and binding affinity results from patent US8927009B2 (AbbVie Inc., priority 2009, dated 2015).

Series [1] can be described thus: Drug solubility in ternary excipient systems. Format: physicochemical. Details: key: ✓: vehicle miscible, or drug fully dissolved in vehicle; x: vehicle immiscible or miscible but turbid, or residual solids present (due to undissolved drug or precipitation). The settings on record: 10% salt, 20% free base, listed as free base. An excerpt:
Solvents evaluated included Labrafil M 1944 CS™, Imwitor 742™, oleic acid, Capmul PG-8™, Capmul PG-12™, Lauroglycol 90™ (propylene glycol monolaurate, available from Gattefossé) and Phosal 53 MCT™. Surfactants evaluated included Tween 80™, Cremophor RH40™, Gelucire 44/14™ (polyoxyethylene glyceryl laurate, available from Gattefossé) and Labrasol™.

Series [2] can be described thus: Solubility in lipid solvents and solvent mixtures in ambient conditions. Format: physicochemical. The settings on record: listed as Parent (Form I). As for the experimental part: Solubility of ABT-263 parent (free base, crystalline Form I) and ABT-263 bis-HCl salt was tested in a variety of lipid solvents and solvent mixtures in ambient conditions. Trademarked solvents in this study, unless identified hereinabove, are as follows (substantially equivalent products from other manufacturers can be substituted if available): • Miglyol 810™ of Sasol: caprylic/capric triglycerides; • Capmul MCM™ of Abitec: glyceryl caprylate/caprate; • Captex 300™ of Abitec: caprylic/capric triglycerides; • Labrafil M 2125 CS™ of Gattefossé: polyoxyethylene glyceryl linoleate; • Tween 20™ of Uniqema: polysorbate 20; • Labrasol™ of Gattefossé: polyoxyethylene glyceryl caprylate/caprate; • Cremophor RH40™: polyoxyethyene (40) hydrogenated castor oil. “PE-91” is Phosal 53 MCT™+ethanol, 9:1 by volume. “LOT-343” is Labrafil M 1944 CS™+oleic acid+Tween 80™, 30:40:30 by weight.
In some cases, indicated in Table 4 by an asterisk (*), solubility was initially high but precipitation occurred upon standing.

Series [3] concerns the target Bcl-2 (Homo sapiens, UniProt P10415). The settings on record: cited from earlier work.
Series [4] concerns the target Bcl-XL (Homo sapiens, UniProt Q07817). The settings on record: cited from earlier work.
The target in series [5] is T1, Bcl-w (Homo sapiens, UniProt Q92843).
T1 sequence (Q92843 1-193): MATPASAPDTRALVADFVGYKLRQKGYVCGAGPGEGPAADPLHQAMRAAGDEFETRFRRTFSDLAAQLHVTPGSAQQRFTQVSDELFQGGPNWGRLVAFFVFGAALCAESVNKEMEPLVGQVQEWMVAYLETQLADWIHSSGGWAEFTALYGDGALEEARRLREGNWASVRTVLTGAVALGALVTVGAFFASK
The settings on record: cited from earlier work.

Sequence of Bcl-XL (Q07817 whole entry): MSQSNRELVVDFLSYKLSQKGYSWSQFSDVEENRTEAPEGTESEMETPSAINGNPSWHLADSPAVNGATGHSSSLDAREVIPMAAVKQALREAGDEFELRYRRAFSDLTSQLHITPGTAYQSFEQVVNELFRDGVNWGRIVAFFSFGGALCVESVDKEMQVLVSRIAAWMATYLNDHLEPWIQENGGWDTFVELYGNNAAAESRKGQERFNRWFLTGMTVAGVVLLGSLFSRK
Sequence of Bcl-2 (P10415 whole entry): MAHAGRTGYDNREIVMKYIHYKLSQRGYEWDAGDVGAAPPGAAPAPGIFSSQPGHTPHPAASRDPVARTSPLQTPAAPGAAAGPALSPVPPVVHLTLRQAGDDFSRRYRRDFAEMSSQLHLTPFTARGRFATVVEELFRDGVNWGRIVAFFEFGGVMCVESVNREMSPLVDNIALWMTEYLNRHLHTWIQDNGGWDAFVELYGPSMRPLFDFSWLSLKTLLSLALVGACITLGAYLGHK

As for `CC1(C)CCC(c2ccc(Cl)cc2)=C(CN2CCN(c3ccc(C(=O)NS(=O)(=O)c4ccc(N[C@H](CCN5CCOCC5)CSc5ccccc5)c(S(=O)(=O)C(F)(F)F)c4)cc3)CC2)C1` [ABT-263], the ABT-263 solubility result in series [1] (Imwitor 742/Labrafil M 1944 CS/Cremophor RH40 (ILC) 40:40:20 % by weight), in series [1] (Imwitor 742/Labrafil M 1944 CS/Cremophor RH40 (ILC) 50:30:20 % by weight), in series [1] (Imwitor 742/Labrafil M 1944 CS/Cremophor RH40 (ILC) 50:40:10 % by weight), in series [1] (Imwitor 742/Labrafil M 1944 CS/Cremophor RH40 (ILC) 60:30:10 % by weight), in series [1] (Imwitor 742/Labrafil M 1944 CS/Labrasol (ILL) 40:40:20 % by weight) and in series [1] (Imwitor 742/Labrafil M 1944 CS/Labrasol (ILL) 50:30:20 % by weight) was “x” each time. The ABT-263 solubility entry in series [1] (Imwitor 742/Labrafil M 1944 CS/Labrasol (ILL) 50:40:10 % by weight), in series [1] (Imwitor 742/Labrafil M 1944 CS/Labrasol (ILL) 60:30:10 % by weight), in series [1] (Labrafil M 1944 CS/Imwitor 742/Tween 80 (LIT) 30:40:30 % by weight), in series [1] (Labrafil M 1944 CS/Imwitor 742/Tween 80 (LIT) 30:45:25 % by weight), in series [1] (Labrafil M 1944 CS/Imwitor 742/Tween 80 (LIT) 40:30:30 % by weight) and in series [1] (Labrafil M 1944 CS/Imwitor 742/Tween 80 (LIT) 40:35:25 % by weight) was “x” throughout. For the same molecule, the ABT-263 solubility result in series [1] (Lauroglycol 90/Labrafil M 1944 CS/Labrasol (LLL) 50:40:10 % by weight) and in series [1] (Lauroglycol 90/Labrafil M 1944 CS/Labrasol (LLL) 60:30:10 % by weight) was “x” in each case. For the same molecule, the Solubility in series [2] (in Labrafil M 2125 CS, ambient conditions) is >290 mg/g; in series [2] (in PE-91 (Phosal 53 MCT + ethanol 9:1 by volume), ambient conditions) it was >250 mg/g; in series [2] (in PEG-400, ambient conditions), >200 mg/g; in series [2] (in corn oil, ambient conditions), <86 mg/g; in series [2] (in sesame oil, ambient conditions), <75 mg/g.

Consider `CN(C)CC[C@H](CSc1ccccc1)Nc1ccc(S(=O)(=O)NC(=O)c2ccc(N3CCN(Cc4ccccc4-c4ccc(Cl)cc4)CC3)cc2)cc1[N+](=O)[O-]` [ABT-737], for which the binding affinity in series [3], in series [4] and in series [5] was < 1 nM each time.
